{
  "source": "ChEMBL document CHEMBL5252512",
  "about": "“Recent Progress in the Development of HIV-1 Protease Inhibitors for the Treatment of HIV/AIDS” (J Med Chem, 2016)",
  "key": {"[1]": {"target": "T1, Human immunodeficiency virus type 1 protease (Human immunodeficiency virus 1, UniProt Q72874)", "assay": "Inhibition of recombinant HIV1 Protease using Abz-Thr-Ile-Nle-(p-nitro)-Phe-Gln-Arg-NH2 peptide as substrate"}, "[2]": {"target": "T1, Human immunodeficiency virus type 1 protease", "assay": "Binding affinity to wild-type HIV1 protease expressed in Escherichia coli BL21(DE3) assessed as inhibition constant using (2-aminobenzoyl)Thr-Ile-Nle-(p-nitro)Phe-Gln-Arg peptide as substrate preincubated for 15 mins followed by substrate addition by fluorimeter analysis"}, "[3]": {"target": "T1, Human immunodeficiency virus type 1 protease", "assay": "Inhibition of recombinant HIV1 Protease using His-Lys-Ala-Arg-Val-Leu-(pNO2-Phe)-Glu-Ala-Nle-SerNH2 peptide as substrate"}, "[4]": {"target": "T1, Human immunodeficiency virus type 1 protease", "assay": "Inhibition of recombinant wildtype HIV1 Protease using Abz-Thr-Ile-Nle-Phe(NO2)-Gln-Arg peptide as substrate"}, "[5]": {"assay": "Half life in dog at 1 mg/kg, iv", "format": "ADME, organism-based, Canis lupus familiaris", "settings": "in vivo"}, "[6]": {"assay": "Half life in rat at 1 mg/kg, iv", "format": "ADME, organism-based", "settings": "in vivo"}, "[7]": {"assay": "AUC in dog at 4 mg/kg, po", "format": "ADME, organism-based, Canis lupus familiaris", "set-up": "dose 4 mg/kg, route po", "settings": "in vivo"}, "[8]": {"assay": "Clearance in rat at 2 mg/kg, iv", "format": "ADME, organism-based", "settings": "in vivo"}, "[9]": {"assay": "Clearance in dog at 1 mg/kg, iv", "format": "ADME, organism-based, Canis lupus familiaris", "settings": "in vivo"}, "[10]": {"assay": "AUC in rat at 10 mg/kg, po", "format": "ADME, organism-based", "set-up": "dose 10 mg/kg, route po", "settings": "in vivo"}, "[11]": {"tested_on": "Human immunodeficiency virus 1", "assay": "Antiviral activity against wild type HIV-1 IIIB infected in human MT4 cells assessed as protection against virus-induced cytotoxicity incubated for 5 days by XTT assay", "format": "functional, organism-based", "settings": "Human immunodeficiency virus 1, IIIB, MT4, 120 h"}, "[12]": {"tested_on": "Human immunodeficiency virus 1", "assay": "Antiviral activity against HIV1 LAI infected in human MT2 cells assessed as inhibition of virus-induced cytopathic effect", "format": "functional, organism-based", "settings": "Human immunodeficiency virus 1, LAI"}, "[13]": {"target": "T1, Human immunodeficiency virus type 1 protease", "assay": "Binding affinity to HIV1 protease assessed as inhibition constant"}},
  "data": [
    {"smiles": "Cc1cccc(C)c1OCC(=O)N(Cc1ccccc1)C[C@@H]1CNC[C@H]1CN(CC(C)C)S(=O)(=O)c1ccccc1", "values": [
      {"measurement": "IC50", "setting": "[1]", "result": 2200, "unit": "nM"}
    ]},
    {"smiles": "COc1ccc(S(=O)(=O)N(CC(C)C)C[C@@H](O)[C@H](Cc2ccc(OCP(=O)(O)O)cc2)NC(=O)O[C@H]2CO[C@H]3OCC[C@H]32)cc1", "values": [
      {"measurement": "Ki", "setting": "[2]", "result": 0.0133, "unit": "nM"}
    ]},
    {"smiles": "C=C(C)[C@@H]1CC[C@@]2(C)[C@@H]1C1CC[C@@H]3[C@@](C)(CC(=O)O)[C@H](C(C)(C)C(=O)O)CC[C@@]3(C)[C@]1(C)C[C@@H]2O", "note": "(some centres not stated)", "values": [
      {"measurement": "IC50", "setting": "[3]", "result": 17800, "unit": "nM"}
    ]},
    {"smiles": "C=C(C)[C@H]1CC[C@]2(C)[C@H]3CC[C@@H]4[C@@]5(C)C[C@H](OC(C)=O)C[C@](C)(C(=O)O)[C@@H]5CC[C@@]4(C)[C@]3(C)CC[C@@H]12", "values": [
      {"measurement": "IC50", "setting": "[3]", "result": 1700, "unit": "nM"}
    ]},
    {"smiles": "CC(C)(C)NC(=O)[C@@H]1C[C@@H]2CCCC[C@@H]2CN1C[C@@H](O)[C@@H](NC(=O)[C@H](CC(N)=O)NC(=O)c1ccc2ccccc2n1)c1cccs1", "values": [
      {"measurement": "IC50", "setting": "[4]", "result": 5000, "unit": "nM"}
    ]},
    {"smiles": "CCCN([C@H](CO)CCC[C@H](C)NC(=O)[C@@H](NC(=O)OC)C(c1ccccc1)c1ccccc1)S(=O)(=O)c1ccc(N)cc1", "values": [
      {"measurement": "half-life", "setting": "[5]", "result": 9.1, "unit": "h"},
      {"measurement": "half-life", "setting": "[6]", "result": 12.4, "unit": "h"},
      {"measurement": "AUC", "setting": "[7]", "result": 2.48, "unit": "µM·h"},
      {"measurement": "clearance", "setting": "[8]", "result": 30, "unit": "mL/min/kg"},
      {"measurement": "clearance", "setting": "[9]", "result": 5.3, "unit": "mL/min/kg"},
      {"measurement": "AUC", "setting": "[10]", "result": 1.35, "unit": "µM·h"}
    ]},
    {"smiles": "CCOP(=O)(COc1ccc(C[C@H](NC(=O)O[C@H]2CO[C@H]3OCC[C@H]32)[C@H](O)CN(CC(C)C)S(=O)(=O)c2ccc(OC)cc2)cc1)OCC", "values": [
      {"measurement": "Ki", "setting": "[2]", "result": 0.0081, "unit": "nM"},
      {"measurement": "EC50", "setting": "[11]", "result": 3.5, "unit": "nM"}
    ]},
    {"smiles": "COc1ccc(S(=O)(=O)N(CC(C)C)C[C@@H](O)[C@H](Cc2ccccc2)NC(=O)O[C@@H]2C[C@@H]3OCO[C@@H]3C2)cc1", "values": [
      {"measurement": "IC50", "setting": "[12]", "result": 3.8, "unit": "nM"},
      {"measurement": "Ki", "setting": "[13]", "result": 0.11, "unit": "nM"}
    ]},
    {"smiles": "Cc1c(O)cccc1C(=O)N[C@@H](c1cccs1)[C@H](O)CN1C[C@H]2CCCC[C@H]2C[C@H]1C(=O)NC(C)(C)C", "values": [
      {"measurement": "IC50", "setting": "[4]", "result": 30000, "unit": "nM"}
    ]},
    {"smiles": "CCCN([C@H](CO)CCC[C@@H](NC(=O)[C@@H](NC(=O)OC)C(c1ccccc1)c1ccccc1)C(F)(F)F)S(=O)(=O)c1ccc(N)cc1", "values": [
      {"measurement": "half-life", "setting": "[5]", "result": 5.2, "unit": "h"},
      {"measurement": "half-life", "setting": "[6]", "result": 3.38, "unit": "h"},
      {"measurement": "AUC", "setting": "[7]", "result": 3.62, "unit": "µM·h"},
      {"measurement": "clearance", "setting": "[8]", "result": 17.4, "unit": "mL/min/kg"},
      {"measurement": "clearance", "setting": "[9]", "result": 4.7, "unit": "mL/min/kg"},
      {"measurement": "AUC", "setting": "[10]", "result": 0.56, "unit": "µM·h"}
    ]}
  ]
}
